The structures appear in SMILES notation.

This note sets out measurements from publication PMC11171523 (2024).

Assay [1] concerns poly A–poly U (pApU, AU-RNA) (RNA, polymer) A/U. As to the kind of experiment: UV melting at 260 nm. Particulars: Na+ (sodium cacodylate, I = 0.05 M); pH 7; ratio [dye]/[polynucleotide] = 0.1; error ±0.5 °C; per base.
For assay [2] the test system is unchanged. The assay can be described thus: fluorimetric titration, Scatchard fit. Particulars: Na+ (sodium cacodylate, I = 0.05 M); pH 7.0, 25 °C; dye 50 nM; n fixed at 0.2; polynucleotide as phosphate; per base.
The test system of assay [3] is poly dAdT–poly dAdT (poly(dAdT)2, AT-DNA) (DNA, polymer) AT. The assay can be described thus: CD titration (induced CD). The following applies: Na+ (sodium cacodylate, I = 0.05 M), pH 7.
Assay [4] deals with poly dGdC–poly dGdC (poly(dGdC)2, GC-DNA) (DNA, polymer) GC. As to the kind of experiment: CD titration (induced CD). Particulars: Na+ (sodium cacodylate, I = 0.05 M), pH 7.
Setting [5] is: ratio [dye]/[polynucleotide] = 0.1 and 0.5, negative ICD at 308–324 nm.

A word on the ΔTm: it is the change in melting temperature against a reference sample. As for `C[N+](C)(C)c1ccc(/C=C/c2cc(/C=C/c3ccc([N+](C)(C)C)cc3)c(/C=C/c3ccc([N+](C)(C)C)cc3)cc2/C=C/c2ccc([N+](C)(C)C)cc2)cc1`, in assay [1], the ΔTm entry is “+12.5 °C”. Further, in assay [2], the “log Ks” value came to 8.6.

In the case of `CCCC[N+](C)(CCCC)c1ccc(/C=C/c2cc(/C=C/c3ccc([N+](C)(CCCC)CCCC)cc3)c(/C=C/c3ccc([N+](C)(CCCC)CCCC)cc3)cc2/C=C/c2ccc([N+](C)(CCCC)CCCC)cc2)cc1`, the ΔTm in assay [1] was 0 °C. In assay [2], the “log Ks” value worked out at 8.6.

`C[n+]1ccc(/C=C/c2cc(/C=C/c3cc[n+](C)cc3)cc(/C=C/c3cc[n+](C)cc3)c2)cc1`: the ΔTm result in assay [1] is “+8.5 °C”. Besides, the “log Ks” value in assay [2] stood at 8.7.

With `C#CC[N+](C)(C)c1ccc(/C=C/c2cc(/C=C/c3ccc([N+](C)(C)CC#C)cc3)c(/C=C/c3ccc([N+](C)(C)CC#C)cc3)cc2/C=C/c2ccc([N+](C)(C)CC#C)cc2)cc1`, in assay [1], the ΔTm entry was “+10.4 °C”. For the same molecule, the “log Ks” value in assay [2] stood at 8.9.

In the case of `CCCC[N+](C)(CCCC)c1ccc(/C=C/c2cc(/C=C/c3ccc([N+](C)(CCCC)CCCC)cc3)cc(/C=C/c3ccc([N+](C)(CCCC)CCCC)cc3)c2)cc1`, the thermal shift (ΔTm) result in assay [1] is “+5.1 °C”. For the same molecule, the binding entry in assay [3] (setting [5]) and in assay [4] (setting [5]) was “yes” each time. Moreover, in assay [2], the “log Ks” value was 8.9.

Take `C[N+](C)(C)c1ccc(/C=C/c2cc(/C=C/c3ccc([N+](C)(C)C)cc3)cc(/C=C/c3ccc([N+](C)(C)C)cc3)c2)cc1`: the ΔTm entry in assay [1] was “+23.2 °C”. In addition, the binding entry in assay [3] (ratio [dye]/[polynucleotide] = 0.5, weaker ICD than GC-DNA) is listed as “yes”; in assay [4] (ratio [dye]/[polynucleotide] = 0.5, strong negative ICD at 325 nm), “yes”. Besides, the “log Ks” value in assay [2] was found to be 8.9.

For `C#CC[N+](C)(C)c1ccc(/C=C/c2cc(/C=C/c3ccc([N+](C)(C)CC#C)cc3)cc(/C=C/c3ccc([N+](C)(C)CC#C)cc3)c2)cc1`, the ΔTm entry in assay [1] is “+18.1 °C”. The “log Ks” value in assay [2] was found to be 8.6.

For `CCCC[n+]1ccc(/C=C/c2cc(/C=C/c3cc[n+](CCCC)cc3)c(/C=C/c3cc[n+](CCCC)cc3)cc2/C=C/c2cc[n+](CCCC)cc2)cc1`, the ΔTm result in assay [1] is “+1.7 °C”. The “log Ks” value in assay [2] amounted to 7.6.

In the case of `CCCC[n+]1ccc(/C=C/c2cc(/C=C/c3cc[n+](CCCC)cc3)cc(/C=C/c3cc[n+](CCCC)cc3)c2)cc1`, the ΔTm entry in assay [1] was “+1.5 °C”. Moreover, the “log Ks” value in assay [2] worked out at 8.7.

`C[n+]1ccc(/C=C/c2cc(/C=C/c3cc[n+](C)cc3)c(/C=C/c3cc[n+](C)cc3)cc2/C=C/c2cc[n+](C)cc2)cc1`: in assay [1], the ΔTm entry is “+6.4 °C”. Also, in assay [2], the “log Ks” value worked out at 8.2.
